According to patent US20140050778A1, “NUCLEIC ACID BINDING COMPOUNDS, METHODS OF MAKING, AND USE THEREOF” (UNIVERSITY OF ROCHESTER, priority 2010, published 2014):
Like-named read-outs stand apart in the source and are kept apart here.

Columns and labels:
Assay in all cases: SPR binding to immobilized biotinylated RNA
[1] = test system: (CUG)10 RNA (SEQ ID NO: 3); details: for ka / kd / Kd / Residence time (t1/2) for compound binding to RNA / Off-rates (koff) / On-rates (kon) / apparent KD: (CUG)10; for sequence selectivity: CUG repeats versus other RNAs
Protocol: (§1) SPR binding measurements were performed on a Biacore-X instrument (Biacore, Inc., Uppsala, Sweden) with two flow channels (FC1 and FC2). 5′-Biotinylated-RNA sequences, with a C6 linker separating the biotin label from the RNA (Integrated DNA Technologies Inc.) were immobilized on streptavidin (Rockland Immunochemicals) functionalized carboxylmethyl dextran coated sensor chips (CM5, G.E. Healthcare) using EDC/NHS (Advanced ChemTech) coupling chemistry. Filtered (0.2μ), degassed and autoclaved HBS-N buffer (0.01M Hepes, pH=7.4, 0.15 M NaCl) was employed as sample and as running buffer for all SPR experiments. A typical protocol for an experiment is as follows: A CM5 sensor chip was allowed to equilibrate to room temperature and then docked into the instrument. Following priming with running buffer, FC1 and FC2 were conditioned by manual injection of 20 μL aqueous NaOH (50 mM) at a flow rate of 30 μL/min. This was repeated 3 times followed by a wash command. Next, the carboxyl groups on the sensor chip surface in both flow cells were activated separately by injecting 60 μL of freshly prepared 1:1 mixture of EDC (0.4 M) and NHS (0.1 M) at a 5 μL/min flow rate followed by a wash. […] After washing, the surface was deactivated with 60 μL injection of ethanolamine (1M, pH=8.5) at 5 μL/min. The flow cells were primed, and the streptavidin surface in FC1 alone was blocked with 30 μL of biotin (20 μM in HBS-N) at 5 μL/min. The RNA (200 nM in running buffer, HBS-N) to be immobilized was unfolded by heating above its predicted melting temperature in a heated block for 2 min and then allowed to refold by cooling gradually to room temperature. The RNA was then immobilized in FC2 alone to response units ranging from 200-1000 RU using a 5 μL/min flow rate. Representative sensorgrams for the immobilization procedure is shown in FIGS. 2A-B. Two 20 μL aliquots of NaCl (0.5 M) were injected at a 30 μL/min flow rate to remove non-specifically bound RNA. The level of RNA immobilized was noted when the baseline was stable, usually after repeated buffer injection followed by a “prime” command. Binding measurements were performed by flowing various concentrations of the compounds to be analyzed over the immobilized RNA and recording the reference-subtracted (FC2−FC1) sensorgrams. For kinetic analysis, at least five sensorgrams corresponding to different concentrations of compound (usually ranging from 0.05-1 μM in HBS-N) were obtained using flow rates of either 60 μL/min or 30 μL/min. The experimental sensorgrams were globally fitted to a 1:1 binding equation (Biaevaluation software) to obtain association rates (ka) and dissociation rates ([…]) as well as equilibrium binding constants (KD). To measure the binding stoichiometry (n), the relations in equations (1-3) below were used: […]
(§2) where RUmax is the maximum resonance response unit at saturation, RURNA is the amount RU of RNA immobilized, n is the stoichiometry, MWcompound and MWRNA are molecular weights of compound and RNA respectively, and RUeq represents the resonance response at steady-state (equilibrium). The response units at equilibrium were subjected to Scatchard binding plots of (r/Cfree vs. r).
This technique allows the association and dissociation rates (ka and kd), equilibrium binding constants (KD), and the binding stoichiometry (n) to be measured in a label-free format (Liu and Wilson, “Quantitative Analysis of Small Molecule-nucleic Acid Interactions with a Biosensor Surface and Surface Plasmon Resonance Detection,” Methods Mol. Biol. 613:1-23 (2010), which is hereby incorporated by reference in its entirety).

[2] = test system: (CUG)2 RNA (SEQ ID NO: 1); details: Table 7, SPR
Protocol: as §1, §2
(§3) The binding characteristics of compounds 3-11 were evaluated against pathogenic CUG^exp RNA and other RNA sequences by SPR. This technique allows the association and dissociation rates (ka and kd), equilibrium binding constants (KD), and the binding stoichiometry (n) to be measured in a label-free format (Liu and Wilson, “Quantitative Analysis of Small Molecule-nucleic Acid Interactions with a Biosensor Surface and Surface Plasmon Resonance Detection,” Methods Mol. Biol. 613:1-23 (2010), which is hereby incorporated by reference in its entirety). […]

[3] = test system: (CAG)10 RNA (SEQ ID NO: 5); details: for Off-rates (koff) / On-rates (kon): SPR
Protocol: as §1, §2, §3

[4] = test system: (CCUG)10 RNA (SEQ ID NO: 4); details: for Residence time (t1/2) for compound binding to RNA / Off-rates (koff) / On-rates (kon): (CCUG)10
Protocol: as §1, §2, §3

[5] = test system: HIV-1 FSS RNA (SEQ ID NO: 7)
Protocol: as §1
as §2, with “r). […]” for “r).”
SPR and fluorescence titration experiments, performed using the protocol described in Examples 3 and 4 above, except using as the target a highly conserved RNA sequence responsible for regulating the production of the Gag-Pol polyprotein via a −1 ribosomal frameshift, which occurs along a “slippery sequence” in gag-pol mRNA (SEQ ID NO: 7). This “frameshift stimulatory sequence” (or “HIV-1 FSS”) consists of an upper stemloop and a lower stem, separated by a purine bulge in the most common types of HIV (FIG. 19). For the fluorescent titration experiments, the upper stemloop of SEQ ID NO: 7 was employed. Cell uptake and toxicity studies were carried out using human fibroblasts according to Example 5 above.

[6] = test system: CUG-CAG duplex ("Duplex") (SEQ ID NO: 6); details: Duplex
Protocol: as §1, §2, §3

Compound | ka ([1]; Table 7, SPR) | kd ([1]; Table 7, SPR) | Kd ([1]; Table 7, SPR, read-out: KD) | Residence time (t1/2) for compound binding to RNA [1] | Off-rates (koff) ([1]; SPR) | On-rates (kon) ([1]; SPR) | Residence time (t1/2) for compound binding to RNA [4] | Off-rates (koff) ([4]; SPR) | On-rates (kon) ([4]; SPR) | also measured
CCc1nc2cc3ccccc3cc2cc1C(=O)N1CCC[C@H]1C(=O)N[C@@H](C/C=C/C[C@H](NC(=O)[C@@H]1CCCN1C(=O)c1cc2cc3ccccc3cc2nc1CC)C(=O)N(C)[C@@H](CCCCN)C(=O)NCCCN)C(=O)N(C)[C@@H](CCCCN)C(=O)NCCCN [20 (E)] | ka = 1.8 ± 0.9E+4/M * s | kd = 1.4 ± 0.6E−3/s | 83 nM | – | – | – | – | – | – | –
CCc1nc2cc3ccccc3cc2cc1C(=O)N1CCC[C@H]1C(=O)N(C)[C@@H](C/C=C\C[C@@H](C(=O)N[C@@H](CCCCN)C(=O)NCCCN)N(C)C(=O)[C@@H]1CCCN1C(=O)c1cc2cc3ccccc3cc2nc1CC)C(=O)N[C@@H](CCCCN)C(=O)NCCCN [21 (Z)] | ka = 1.6 ± 0.3E+4/M * s | kd = 1.6 ± 0.1E−3/s | 102 nM | – | – | – | – | – | – | –
CCc1nc2cc3ccccc3cc2cc1C(=O)N1CCC[C@H]1C(=O)N(C)[C@@H](C/C=C/C[C@@H](C(=O)N(C)[C@@H](CCCCN)C(=O)NCCCN)N(C)C(=O)[C@@H]1CCCN1C(=O)c1cc2cc3ccccc3cc2nc1CC)C(=O)N(C)[C@@H](CCCCN)C(=O)NCCCN [22 (E)] | bka = 1.2 ± 0.3E+4/M * s | kd = 8.7 ± 0.3E−4/s | 72 nM | – | – | – | – | – | – | ka [2]: ka = 1.9 ± 0.4E+4/M * s; kd [2]: kd = 8 ± 4E−4/s
CCc1nc2cc3ccccc3cc2cc1C(=O)N1CCC[C@H]1C(=O)N(C)[C@@H](C/C=C\C[C@@H](C(=O)N(C)[C@@H](CCCCN)C(=O)NCCCN)N(C)C(=O)[C@@H]1CCCN1C(=O)c1cc2cc3ccccc3cc2nc1CC)C(=O)N(C)[C@@H](CCCCN)C(=O)NCCCN [22 (Z)] | ka = 9.2 ± 0.4E+3/M * s | kd = 3 ± 2E−3/s | 378 nM | – | – | – | – | – | – | –
NCCCC[C@H](NC(=O)[C@H](C/C=C\C[C@H](NC(=O)[C@@H]1CCCN1)C(=O)N[C@@H](CCCCN)C(=O)NCCCN)NC(=O)[C@@H]1CCCN1)C(=O)NCCCN [Compound 6] | – | – | – | 19.91 s | 0.0348 s⁻¹ | 132000 M⁻¹ s⁻¹ | 2.32 s | 0.299 s⁻¹ | 13600 M⁻¹ s⁻¹ | apparent KD ([1]; SPR): modest affinity; sequence selectivity ([1]; SPR): neither displayed any selectivity; Residence time (t1/2) for compound binding to RNA [3]: 36.09 s; Off-rates (koff) [3]: 0.0192 s⁻¹; On-rates (kon) [3]: 125000 M⁻¹ s⁻¹; Residence time (t1/2) for compound binding to RNA [5]: 26.96 s; Off-rates (koff) ([5]; SPR): 0.0257 s⁻¹; On-rates (kon) ([5]; SPR): 221000 M⁻¹ s⁻¹
CCc1nc2cc3ccccc3cc2cc1C(=O)N[C@@H](CCCCN)C(=O)N[C@@H](C/C=C\C[C@H](NC(=O)[C@H](CCCCN)NC(=O)c1cc2cc3ccccc3cc2nc1CC)C(=O)N1CCC[C@H]1C(=O)NCCCN)C(=O)N1CCC[C@H]1C(=O)NCCCN [Compound 8] | – | – | – | 228.71 s | 0.00303 s⁻¹ | 24600 M⁻¹ s⁻¹ | 152.98 s | 0.00453 s⁻¹ | 15400 M⁻¹ s⁻¹ | apparent KD ([1]; SPR): reduced affinity; sequence selectivity ([1]; SPR): no selectivity for CUG or CCUG repeats relative to duplex CUG-CAG or HIV-1 FSS RNAs; Residence time (t1/2) for compound binding to RNA [6]: 255.72 s; Off-rates (koff) ([6]; SPR): 0.00271 s⁻¹; On-rates (kon) ([6]; SPR): 29000 M⁻¹ s⁻¹; Residence time (t1/2) for compound binding to RNA [3]: 116.86 s; Off-rates (koff) [3]: 0.00593 s⁻¹; On-rates (kon) [3]: 12600 M⁻¹ s⁻¹
CCc1nc2cc3ccccc3cc2cc1C(=O)N[C@@H](C/C=C\C[C@H](NC(=O)c1cc2cc3ccccc3cc2nc1CC)C(=O)N1CCC[C@H]1C(=O)N[C@@H](Cc1ccccc1)C(=O)NCCCN)C(=O)N1CCC[C@H]1C(=O)N[C@@H](Cc1ccccc1)C(=O)NCCCN [Compound 19] | – | – | – | – | – | – | – | – | – | Kd ([5]; SPR, read-out: apparent KD): 102 ± 0.021 nM
Neomycin [reference compound] | – | – | – | 13.70 s | 0.0507 s⁻¹ | 125000 M⁻¹ s⁻¹ | 3.55 s | 0.195 s⁻¹ | 109000 M⁻¹ s⁻¹ | Kd ([1]; SPR, read-out: apparent KD): 409.6 ± 0.89 nM; Kd ([4]; SPR, (CCUG)10, running text, read-out: apparent KD): 1960 ± 714 nM
